Results taken from patent US11717502B2, “Blood flow improver” (WAKUNAGA PHARMACEUTICAL CO., LTD., priority 2017, dated 2023).

Assays:
[1] = system: water immersion stressed rats; test: Action of S1PC against decrease in tail skin blood flow in water immersion stressed rats (Test Example 1); type: in vivo, male Wistar rats
Experimental: Action of S1PC Against Decrease in Tail Skin Blood Flow in Water Immersion Stressed Rate
(§1) Eight-week-old male Wistar rats purchased from Japan SLC, Inc. (Hamamatsu City) were grouped by nines, and preliminarily bred for two weeks. During preliminary breeding, handling was performed on the rats, and the rats were bred in a constant environment at a temperature of 23±1° C., a humidity of 50±10%, and a light/dark cycle of 12 hours (light period: 7 to 19 o'clock), and freely fed with artificial diet (CE-2, from CLEA Japan, inc.) and sterilized tap water.
The administration was performed by forced oral administration using a disposable feeding needle, and the fluid volume to be administered was 10 mL per kilogram of body weight of rat. As a sample to be administered, approximately 15 mg of S1PC (a cis/trans mixture) manufactured in Production Example 2 was precisely weighed, and dissolved in 15 mL of purified water. This solution was used as a stock solution. The solution was properly diluted to give 6.5 mg/kg (body weight of rat) of dosage and the diluted solution was orally administered to each rat a single time. To each rat of a control group, a solvent (purified water) was orally administered in the same manner as described above.
(§2) The rats were allowed to stand still in a room conditioned at a temperature of 20±0.5° C. for 30 minutes or longer, and attached with a probe for blood flow measurement using a binding tape at a position 5 cm away from the base of tail under isoflurane anesthesia. The blood flow was measured for 5 minutes using a laser tissue blood flowmeter (FLO-C1, from Omegawave Inc.). Average blood flow for 3 minutes during which the stable blood flow was shown was determined as the tail skin blood flow of the individual. The blood flow before water immersion was measured, and then S1PC or purified water was orally administered to the rats. Two hours after the administration, the rats were immersed up to the xiphoid and below in water at 15° C. for 10 minutes, using a stainless-steel restraint cage. The tail skin blood flow after the water immersion stress was measured one hour after the end of water immersion stress.
Measured values were given as average±standard error.
The t-test was used for examination.

[2] = system: water immersion stressed rats; test: Actions against depressed tail subcutaneous blood flow in water immersion stressed rats, compared between S1PC and SAC (Test Example 2); type: in vivo, male Wistar rats; details: for Effect of improving the tail skin blood flow with respect to the control group: 6.5 mg/kg single oral administration two hours before water immersion stress, one hour after end of stress, Bonferroni correction
Experimental: Actions against Depressed Tail Subcutaneous Blood Flow in Water Immersion Stressed Rats, Compared between S1PC and SAC
as §1, with “Seven-week-old” for “Eight-week-old”, “twelves,” for “nines,”
The administration was performed by forced oral administration using a disposable feeding needle, and the fluid volume to be administered was 10 mL per kilogram of body weight of rat. As a sample to be administered, approximately 15 mg each of S1PC (a cis/trans mixture) manufactured in Production Example 2 and SAC were precisely weighed, and dissolved in 15 mL of purified water. These solutions were used as a stock solution. The solutions were properly diluted to give 6.5 mg/kg (body weight of rat) of dosage and the diluted solution was orally administered to each rat a single time. […]
as §2, with “individuals.” for “individual.”, “S1PC, SAC” for “S1PC”, “Two hours after the administration, the rats were immersed up to the xiphoid and below in water at 15° C. for 10 minutes, using a stainless-steel restraint cage.” left out
Measured values were given […] average±standard error. […]

| SMILES | Effect of improving the tail skin blood flow with respect to the control group ([1]; 6.5 mg/kg single oral administration two hours before water immersion stress, t-test) | Degree of decrease in tail skin blood flow due to water immersion stress ([1]; 6.5 mg/kg single oral administration two hours before water immersion stress, versus control group) | Tail skin blood flow, one hour after end of water immersion stress ([1]; 6.5 mg/kg single oral dose two hours before water immersion (15° C., 10 minutes), average ± standard error) [mL/min/100 g] | Tail skin blood flow, before water immersion stress ([1]; baseline before oral administration, average ± standard error, laser tissue blood flowmeter) [mL/min/100 g] | Effect of improving the tail skin blood flow with respect to the control group [2] | Tail skin blood flow, S1PC group compared with SAC group ([2]; 6.5 mg/kg single oral dose each, one hour after end of water immersion stress, p<0.01) |
| --- | --- | --- | --- | --- | --- | --- |
| CC=CSC[C@H](N)C(=O)O [S1PC, S-1-propenylcysteine] | significant effect of improving the tail skin blood flow | smaller as compared with the control group | 2.21 ± 0.15 | 2.76 ± 0.15 | showed a significant effect of improving the tail skin blood flow | significantly higher value of tail skin blood flow, as compared with the SAC group |
| C=CCSC[C@H](N)C(=O)O [SAC, S-allylcysteine, reference compound] |  |  |  |  | did not show a significant effect of improving the tail skin blood flow |  |
